Our source for the IC50 values is patent US8563732B2, “Oxyimino compounds and the use thereof” (Shionogi & Co., Ltd., priority 2007, dated 2013).

The target in assay [1] is T1, N-type calcium channel (NTCC) (Homo sapiens, UniProt Q00975).
T1 construct: host or cells: IMR32 cells, differentiated with dibutyryl cAMP and bromodeoxyuridine
Kind of assay: FLIPR calcium mobilization assay for N-type calcium channel. As to conditions: calcium mobilization in vitro assay; differentiated IMR32 cells, 5 μM nitrendipine, 90 mM KCl. It counts as cell-based. As to the method: Cell maintenance and differentiation. Unless noted otherwise, cell culture reagents were purchased from Mediatech of Herndon, Md. IMR32 cells (American Type Culture Collection, ATCC, Manassas, Va.) were routinely cultured in growth medium consisting of minimum essential medium containing 10% fetal bovine serum (FBS, Hyclone, Logan, Utah), 100 U/mL penicillin, 100 μg/mL streptomycin, 2 mM L-glutamine, 1 mM sodium pyruvate, and 1×MEM non-essential amino acids. 80-90% confluent flasks of cells were differentiated using the following differentiation medium: Growth medium plus 1 mM dibutyryl cyclic AMP (Sigma, St. Louis, Mo.), and 2.5 μM bromodeoxyuridine (Sigma). Cells were differentiated for 8 days by replacing differentiation medium every 2-3 days.
FLIPR Calcium Mobilization Assay for N-type Calcium Channel. One day prior to performing this assay, differentiated IMR32 cells were treated with 1× CellStripper, and seeded on poly-D-lysine-coated 96-well clear-bottom black plates (Becton Dickinson, Franklin Lakes, N.J.) at 200,000 cells/well. […] Plates were then transferred to a Fluorimetric Imaging Plate Reader (FLIPR^96, Molecular Devices, Inc., Sunnyvale, Calif.) for assay. The FLIPR measured basal Fluo-4 fluorescence for 315 seconds (i.e., 5 minutes and 15 seconds), then added 0.1 mL KCl agonist dissolved in IMR32 buffer and measured fluorescence for another 45 seconds. Final test compound concentrations on the cells after FLIPR read ranged from about 846 pM to about 17 μM, final nitrendipine concentration was 5 μM, and final KCl concentration was 90 mM. Data were collected over the entire time course and analyzed using Excel, Graph Pad Prism (version 3.02, Graph Pad, San Diego, Calif.), or an in-house non-linear regression analysis software.

Assay [2] addresses T2, L-type calcium channel (LTCC) (Rattus norvegicus, UniProt P22002).
T2 construct: The 6.5 kb cDNA encoding the L-type calcium channel α1c subunit was cloned by PCR amplification from rat heart cDNA; expressed in transfected cells
Kind of assay: FLIPR calcium mobilization assay for L-type calcium channel. The note with it: calcium mobilization in vitro assay; HEK293 cells expressing recombinant rat LTCC subunits (α1c, α2δ, β1), 90 mM KCl. It counts as cell-based. As to the method: Recombinant human embryonal kidney cells (HEK293, ATCC) stably transfected with either N-type calcium channel (NTCC) subunits (α1b, α2δ, and (β3) or L-type calcium channel (LTCC) subunits (α1c, α2δ, and β1) were routinely cultured in growth medium consisting of Dulbecco's Modified Eagles Medium containing 10% FBS, 100 U/mL penicillin, 100 μg/mL streptomycin, 4 mM L-glutamine, 500 μg/mL geneticin (G418), 20 μg/mL Blasticidin S (InVivogen, San Diego, Calif.) and 500 μg/mL zeocin (InVivogen).
FLIPR Calcium Mobilization Assay for L-type Calcium Channel. One day prior to performing this assay, HEK293 cells stably expressing recombinant rat L-type calcium channel (LTCC) subunits (α1c, α2δ, and β1) were trypsinized, then seeded on poly-D-lysine-coated 96-well clear-bottom black plates (Becton Dickinson, Franklin Lakes, N.J.) at 75,000 cells/well. On the day of the assay, the plates were washed with LTCC wash buffer (127 mM NaCl, 2 mM MgCl2, 700 μM NaH2PO4, 5 mM CaCl2, 5 mM NaHCO3, 8 mM HEPES, 10 mM glucose, pH 7.4), then loaded with 0.1 mL of LTCC wash buffer containing Fluo-4 (3 μM final concentration, Molecular Probes, Eugene, Oreg.). After 1 hour, the cells were washed with 0.1 mL LTCC wash buffer and resuspended in 0.05 mL LTCC assay buffer (same composition as LTCC wash buffer). Plates were then transferred to a FLIPR^96 for assay. The FLIPR measured basal Fluo-4 fluorescence for 15 seconds, then added 0.05 mL of each compound tested diluted in LTCC assay buffer at final concentrations ranging from about 846 pM to about 17 μM. Fluo-4 fluorescence was then measured for 5 minutes. 0.1 mL KCl agonist dissolved in LTCC assay buffer was then added to the cells to produce a final concentration of 90 mM KCl, and fluorescence was measured for another 45 seconds. Data were collected over the entire time course and analyzed using Excel, Graph Pad Prism, or an in-house regression analysis software.

T1 sequence (Q00975 whole entry): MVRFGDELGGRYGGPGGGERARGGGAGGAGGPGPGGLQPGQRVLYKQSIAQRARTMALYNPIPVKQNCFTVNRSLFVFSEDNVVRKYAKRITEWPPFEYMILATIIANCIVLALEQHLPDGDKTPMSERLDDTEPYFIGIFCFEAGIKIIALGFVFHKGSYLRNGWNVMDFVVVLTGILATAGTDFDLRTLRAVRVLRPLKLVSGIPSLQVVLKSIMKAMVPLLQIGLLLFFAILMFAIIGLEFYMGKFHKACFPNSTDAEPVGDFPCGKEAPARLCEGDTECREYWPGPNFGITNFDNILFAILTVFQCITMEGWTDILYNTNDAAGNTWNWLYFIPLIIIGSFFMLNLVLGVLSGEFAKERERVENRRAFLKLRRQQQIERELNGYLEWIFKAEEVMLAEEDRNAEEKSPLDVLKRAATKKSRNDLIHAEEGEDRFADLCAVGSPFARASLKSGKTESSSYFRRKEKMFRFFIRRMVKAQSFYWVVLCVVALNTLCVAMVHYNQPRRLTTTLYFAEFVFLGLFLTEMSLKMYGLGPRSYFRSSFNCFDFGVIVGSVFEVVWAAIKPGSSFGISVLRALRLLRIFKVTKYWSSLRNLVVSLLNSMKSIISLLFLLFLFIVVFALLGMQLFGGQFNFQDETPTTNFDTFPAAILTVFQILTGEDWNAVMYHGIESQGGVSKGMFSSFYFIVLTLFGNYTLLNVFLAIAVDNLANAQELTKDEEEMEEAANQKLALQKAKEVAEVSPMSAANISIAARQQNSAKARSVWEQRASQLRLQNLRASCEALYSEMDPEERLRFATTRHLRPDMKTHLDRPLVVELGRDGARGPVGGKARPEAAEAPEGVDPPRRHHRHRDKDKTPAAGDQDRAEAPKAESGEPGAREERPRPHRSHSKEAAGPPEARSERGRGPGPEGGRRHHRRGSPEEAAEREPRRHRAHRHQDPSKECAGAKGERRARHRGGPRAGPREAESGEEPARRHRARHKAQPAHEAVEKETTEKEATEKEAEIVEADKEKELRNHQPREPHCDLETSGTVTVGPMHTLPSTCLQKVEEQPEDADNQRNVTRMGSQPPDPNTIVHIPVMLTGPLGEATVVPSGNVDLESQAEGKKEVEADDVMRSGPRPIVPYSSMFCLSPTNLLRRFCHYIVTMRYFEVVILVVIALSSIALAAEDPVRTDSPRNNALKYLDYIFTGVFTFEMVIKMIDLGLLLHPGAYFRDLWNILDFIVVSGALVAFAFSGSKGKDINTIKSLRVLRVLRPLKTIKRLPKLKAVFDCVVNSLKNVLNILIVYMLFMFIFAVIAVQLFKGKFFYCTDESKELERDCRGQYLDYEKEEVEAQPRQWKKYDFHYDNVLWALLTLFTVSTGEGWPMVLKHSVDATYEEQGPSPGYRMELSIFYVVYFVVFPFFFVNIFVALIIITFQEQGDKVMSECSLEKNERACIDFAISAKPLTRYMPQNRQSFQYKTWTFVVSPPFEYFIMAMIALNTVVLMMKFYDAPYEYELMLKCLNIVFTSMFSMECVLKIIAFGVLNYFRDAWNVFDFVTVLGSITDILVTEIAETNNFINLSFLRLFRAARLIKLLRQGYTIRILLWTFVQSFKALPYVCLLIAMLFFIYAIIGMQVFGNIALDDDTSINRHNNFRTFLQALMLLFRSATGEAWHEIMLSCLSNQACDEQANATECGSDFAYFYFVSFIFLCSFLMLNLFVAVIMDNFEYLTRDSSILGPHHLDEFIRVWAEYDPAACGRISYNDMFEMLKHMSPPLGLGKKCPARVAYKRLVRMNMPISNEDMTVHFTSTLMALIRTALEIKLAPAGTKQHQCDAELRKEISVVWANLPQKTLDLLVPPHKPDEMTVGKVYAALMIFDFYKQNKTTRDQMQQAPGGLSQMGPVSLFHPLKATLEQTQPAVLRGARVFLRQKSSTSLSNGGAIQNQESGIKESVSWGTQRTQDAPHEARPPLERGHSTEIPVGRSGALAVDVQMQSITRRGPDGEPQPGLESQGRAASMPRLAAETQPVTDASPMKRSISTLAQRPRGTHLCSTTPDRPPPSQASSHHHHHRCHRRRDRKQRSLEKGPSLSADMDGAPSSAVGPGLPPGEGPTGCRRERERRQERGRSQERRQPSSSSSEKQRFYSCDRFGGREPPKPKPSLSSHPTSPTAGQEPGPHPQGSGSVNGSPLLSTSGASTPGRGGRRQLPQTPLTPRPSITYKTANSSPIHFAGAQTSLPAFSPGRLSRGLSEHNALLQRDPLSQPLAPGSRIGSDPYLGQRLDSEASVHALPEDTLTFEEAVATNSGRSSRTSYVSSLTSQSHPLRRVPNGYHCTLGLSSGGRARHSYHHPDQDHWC
T1 sequence (P54289 25-956 partner limits assumed): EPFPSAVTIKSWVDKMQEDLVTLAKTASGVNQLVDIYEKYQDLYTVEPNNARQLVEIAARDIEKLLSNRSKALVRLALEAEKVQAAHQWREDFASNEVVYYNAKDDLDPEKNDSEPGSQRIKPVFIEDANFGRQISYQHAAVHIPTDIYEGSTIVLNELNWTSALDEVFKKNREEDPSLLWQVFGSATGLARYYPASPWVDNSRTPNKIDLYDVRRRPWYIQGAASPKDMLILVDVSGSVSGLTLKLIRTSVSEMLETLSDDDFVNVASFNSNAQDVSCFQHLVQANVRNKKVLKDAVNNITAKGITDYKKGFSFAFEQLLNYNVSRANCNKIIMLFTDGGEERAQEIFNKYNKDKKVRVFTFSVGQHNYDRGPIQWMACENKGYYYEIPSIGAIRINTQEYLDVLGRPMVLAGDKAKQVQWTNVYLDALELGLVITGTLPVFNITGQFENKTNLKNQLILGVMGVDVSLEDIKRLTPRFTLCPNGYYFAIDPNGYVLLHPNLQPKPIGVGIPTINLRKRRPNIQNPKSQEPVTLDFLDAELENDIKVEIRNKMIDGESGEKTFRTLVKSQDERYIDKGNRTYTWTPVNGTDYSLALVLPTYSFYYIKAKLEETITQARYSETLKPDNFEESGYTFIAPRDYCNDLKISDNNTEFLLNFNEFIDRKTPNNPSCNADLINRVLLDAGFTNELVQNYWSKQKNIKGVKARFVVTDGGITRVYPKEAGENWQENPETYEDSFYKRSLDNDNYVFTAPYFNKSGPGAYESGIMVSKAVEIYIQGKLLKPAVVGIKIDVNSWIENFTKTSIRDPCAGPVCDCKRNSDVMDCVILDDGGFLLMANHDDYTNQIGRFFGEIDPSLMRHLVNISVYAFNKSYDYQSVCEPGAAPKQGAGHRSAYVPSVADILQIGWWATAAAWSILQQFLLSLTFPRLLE
T1 sequence (P54289 957-1103 partner limits assumed): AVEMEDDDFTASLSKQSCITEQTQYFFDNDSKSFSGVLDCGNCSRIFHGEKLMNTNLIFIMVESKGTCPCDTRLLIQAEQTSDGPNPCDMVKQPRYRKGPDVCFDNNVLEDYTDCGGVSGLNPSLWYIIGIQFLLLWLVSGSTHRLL
T1 sequence (P54284 whole entry partner): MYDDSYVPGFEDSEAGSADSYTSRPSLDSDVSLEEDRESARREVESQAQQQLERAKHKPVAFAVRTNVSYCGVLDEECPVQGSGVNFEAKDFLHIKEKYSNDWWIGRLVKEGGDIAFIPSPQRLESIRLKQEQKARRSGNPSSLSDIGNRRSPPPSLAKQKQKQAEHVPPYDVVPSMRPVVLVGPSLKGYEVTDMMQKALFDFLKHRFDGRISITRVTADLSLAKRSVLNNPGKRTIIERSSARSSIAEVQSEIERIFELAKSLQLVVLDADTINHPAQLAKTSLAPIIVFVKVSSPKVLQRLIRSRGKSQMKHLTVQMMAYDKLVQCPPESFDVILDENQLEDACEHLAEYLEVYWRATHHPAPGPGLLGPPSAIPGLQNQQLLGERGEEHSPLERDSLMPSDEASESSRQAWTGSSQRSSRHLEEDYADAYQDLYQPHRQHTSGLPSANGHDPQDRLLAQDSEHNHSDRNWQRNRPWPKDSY

One may read the IC50 as the point on the concentration scale where inhibition reaches its midpoint. As for `N#Cc1cccc(C(=NOC2CCN(S(=O)(=O)c3ccc(OC(F)(F)F)cc3)CC2)C2CC2)c1` (racemic) [Example 2, 3-(Cyclopropyl(1-(4-(trifluoromethoxy)phenylsulfonyl)piperidin-4-yloxyimino)methyl)benzonitrile], the figures for the IC50 in assay [1] and in assay [2] were 0.2 µM and more than 20 µM, respectively.

On to `O=S(=O)(c1ccc(OC(F)(F)F)cc1)N1CCC(ON=C(c2ccc(F)cc2)c2ccc(F)cc2)CC1` [Example 3, Bis(4-fluorophenyl)methanone O-1-(4-(trifluoromethoxy)phenylsulfonyl)piperidin-4-yl oxime], for which the IC50 in assay [1] was 0.1 µM; in assay [2], more than 20 µM.

On to `C/C(=N\OC1CCN(S(=O)(=O)c2ccc(OC(F)(F)F)cc2)CC1)c1cccc(C#N)c1` [Example 4, (E)-3-(1-(1-(4-(Trifluoromethoxy)phenylsulfonyl)piperidin-4-yloxyimino)ethyl)benzonitrile], for which the IC50 in assay [1] is 0.18 µM; in assay [2] it was more than 20 µM.
